Assays:
Type in all cases: in vivo
[1] = tested on: barnyardgrass (Echinochloa crusgalli); test: Test B flooded paddy test, visual plant response rating 0-100; conditions: 250 g ai/ha, Flood, applied to paddy water, evaluated after 13 days
In short: (§1)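 Each species was raised to two leaves before flooding to a 3 cm depth and dosing the water with compound. Injury was assessed by eye after 13 days under greenhouse conditions.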

[2] = tested on: sedge, umbrella (small-flower umbrella sedge, Cyperus difformis); test: as above; conditions: 250 g ai/ha, Flood, applied to paddy water, evaluated after 13 days
In short: as §1

rice (Oryza sativa) = test: as above; conditions: 250 g ai/ha, Flood, applied to paddy water, evaluated after 13 days
In short: as §1

[3] = tested on: ducksalad (Heteranthera limosa); test: as above; conditions: 250 g ai/ha, Flood, applied to paddy water, evaluated after 13 days
In short: as §1

[4] = tested on: wheat (Triticum aestivum); test: Test A postemergence application, visual injury rating 0-100; conditions: Postemergence, 10 days, 0 is no effect, 100 is complete control
In short: (§2)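 Directed preemergence spray onto seeded soil or postemergence spray onto 2-10 cm plants (loam plus sand); compound carried in surfactant-containing non-phytotoxic solvent. Injury rated by eye after 10 d greenhouse growth; 0 = no effect, 100 = complete control.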

soybean (Glycine max) [5] = test: as above; conditions: Postemergence, 10 days, 0 is no effect, 100 is complete control
In short: as §2

[6] = tested on: galium (catchweed bedstraw, Galium aparine); test: as above; conditions: Postemergence, 10 days, 0 is no effect, 100 is complete control
In short: as §2

[7] = tested on: palmer (palmer amaranth, palmer pigweed, Amaranthus palmeri); test: as above; conditions: Postemergence, 10 days, 0 is no effect, 100 is complete control
In short: as §2

[8] = tested on: blackgrass (Alopecurus myosuroides); test: as above; conditions: Postemergence, 10 days, 0 is no effect, 100 is complete control
In short: as §2

[9] = tested on: foxtail, giant (giant foxtail, Setaria faberi); test: as above; conditions: 10 days, 0 is no effect, 100 is complete control
In short: as §2

corn (Zea mays) [10] = test: as above; conditions: Postemergence, 10 days, 0 is no effect, 100 is complete control
In short: as §2

[11] = tested on: horseweed (Erigeron canadensis); test: as above; conditions: Postemergence, 10 days, 0 is no effect, 100 is complete control
In short: as §2

[12] = tested on: barnyardgrass (Echinochloa crus-galli); test: as above; conditions: Postemergence, 10 days, 0 is no effect, 100 is complete control
In short: as §2

[13] = tested on: ryegrass, Italian (italian ryegrass, Lolium multiflorum); test: as above; conditions: Postemergence, 10 days, 0 is no effect, 100 is complete control
In short: as §2

[14] = tested on: oat, wild (wild oat, Avena fatua); test: as above; conditions: Postemergence, 10 days, 0 is no effect, 100 is complete control
In short: as §2

[15] = tested on: ragweed (common ragweed, Ambrosia artemisiifolia); test: as above; conditions: Postemergence, 10 days, 0 is no effect, 100 is complete control
In short: as §2

kochia (Bassia scoparia) [16] = test: as above; conditions: Postemergence, 10 days, 0 is no effect, 100 is complete control
In short: as §2

[17] = tested on: wheat (Triticum aestivum); test: Test A preemergence soil spray, visual injury rating 0-100; conditions: 10 days, 0 = no effect, 100 = complete control
In short: as §2

soybean (Glycine max) [18] = test: as above; conditions: 10 days, 0 = no effect, 100 = complete control
In short: as §2

[19] = tested on: palmer (palmer amaranth, palmer pigweed, Amaranthus palmeri); test: as above; conditions: 10 days, 0 = no effect, 100 = complete control
In short: as §2

[20] = tested on: blackgrass (Alopecurus myosuroides); test: as above; conditions: 10 days, 0 = no effect, 100 = complete control
In short: as §2

[21] = tested on: foxtail, giant (giant foxtail, Setaria faberi); test: as above; conditions: 10 days, 0 = no effect, 100 = complete control
In short: as §2

corn (Zea mays) [22] = test: as above; conditions: 10 days, 0 = no effect, 100 = complete control
In short: as §2

[23] = tested on: barnyardgrass (Echinochloa crus-galli); test: as above; conditions: 10 days, 0 = no effect, 100 = complete control
In short: as §2

[24] = tested on: ryegrass, Italian (italian ryegrass, Lolium multiflorum); test: as above; conditions: 10 days, 0 = no effect, 100 = complete control
In short: as §2

[25] = tested on: oat, wild (wild oat, Avena fatua); test: as above; conditions: 10 days, 0 = no effect, 100 = complete control
In short: as §2

[26] = tested on: ragweed (common ragweed, Ambrosia artemisiifolia); test: as above; conditions: 10 days, 0 = no effect, 100 = complete control
In short: as §2

kochia (Bassia scoparia) [27] = test: as above; conditions: 10 days, 0 = no effect, 100 = complete control
In short: as §2

CC1(C(=O)NC2C=CC(C(=O)NS(C)(=O)=O)C2)CN(c2cc(F)cc(F)c2)C(=O)O1 (stereo not shown) [Compound 30]
Plant response rating, Barnyardgrass (0 to 100 scale, 0 is no effect and 100 is complete control) [1]: 15
Plant response rating, Sedge, Umbrella (0 to 100 scale, 0 is no effect and 100 is complete control) [2]: 95
Plant response rating, Rice (0 to 100 scale, 0 is no effect and 100 is complete control) (rice (Oryza sativa)): 0
Plant response rating, Ducksalad (0 to 100 scale, 0 is no effect and 100 is complete control) [3]: 65
Wheat plant response rating (0 to 100 scale) ([4]; 125 g ai/ha): 80
Wheat plant response rating (0 to 100 scale) ([4]; 500 g ai/ha): 80
Soybean plant response rating (0 to 100 scale) (soybean (Glycine max) [5]; 125 g ai/ha): 60
Soybean plant response rating (0 to 100 scale) (soybean (Glycine max) [5]; 500 g ai/ha): 70
Galium plant response rating (0 to 100 scale) ([6]; 125 g ai/ha): 80
Galium plant response rating (0 to 100 scale) ([6]; 500 g ai/ha): 80
Amaranth, Palmer / Pigweed, Palmer plant response rating (0 to 100 scale) ([7]; 125 g ai/ha): 90
Amaranth, Palmer / Pigweed, Palmer plant response rating (0 to 100 scale) ([7]; 500 g ai/ha): 90
Blackgrass plant response rating (0 to 100 scale) ([8]; 125 g ai/ha): 70
Blackgrass plant response rating (0 to 100 scale) ([8]; 500 g ai/ha): 100
Foxtail, Giant plant response rating (0 to 100 scale) ([9]; 125 g ai/ha): 90
Foxtail, Giant plant response rating (0 to 100 scale) ([9]; 500 g ai/ha): 90
Corn plant response rating (0 to 100 scale) (corn (Zea mays) [10]; 125 g ai/ha): 60
Corn plant response rating (0 to 100 scale) (corn (Zea mays) [10]; 500 g ai/ha): 90
Horseweed plant response rating (0 to 100 scale) ([11]; 125 g ai/ha): 30
Horseweed plant response rating (0 to 100 scale) ([11]; 500 g ai/ha): 80
Barnyardgrass plant response rating (0 to 100 scale) ([12]; 125 g ai/ha): 100
Barnyardgrass plant response rating (0 to 100 scale) ([12]; 500 g ai/ha): 100
Ryegrass, Italian plant response rating (0 to 100 scale) ([13]; 125 g ai/ha): 80
Ryegrass, Italian plant response rating (0 to 100 scale) ([13]; 500 g ai/ha): 100
Oat, Wild plant response rating (0 to 100 scale) ([14]; 125 g ai/ha): 100
Oat, Wild plant response rating (0 to 100 scale) ([14]; 500 g ai/ha): 100
Ragweed plant response rating (0 to 100 scale) ([15]; 125 g ai/ha): 20
Ragweed plant response rating (0 to 100 scale) ([15]; 500 g ai/ha): 80
Kochia plant response rating (0 to 100 scale) (kochia (Bassia scoparia) [16]; 125 g ai/ha): 70
Kochia plant response rating (0 to 100 scale) (kochia (Bassia scoparia) [16]; 500 g ai/ha): 80
Wheat plant response rating (0 to 100 scale) ([17]; 125 g ai/ha): 90
Wheat plant response rating (0 to 100 scale) ([17]; 500 g ai/ha): 100
Soybean plant response rating (0 to 100 scale) (soybean (Glycine max) [18]; 125 g ai/ha): 0
Soybean plant response rating (0 to 100 scale) (soybean (Glycine max) [18]; 500 g ai/ha): 80
Amaranth, Palmer plant response rating (0 to 100 scale) ([19]; 125 g ai/ha): 80
Amaranth, Palmer plant response rating (0 to 100 scale) ([19]; 500 g ai/ha): 100
Blackgrass plant response rating (0 to 100 scale) ([20]; 125 g ai/ha): 80
Blackgrass plant response rating (0 to 100 scale) ([20]; 500 g ai/ha): 90
Foxtail, Giant plant response rating (0 to 100 scale) ([21]; 125 g ai/ha): 30
Foxtail, Giant plant response rating (0 to 100 scale) ([21]; 500 g ai/ha): 100
Corn plant response rating (0 to 100 scale) (corn (Zea mays) [22]; 125 g ai/ha): 70
Corn plant response rating (0 to 100 scale) (corn (Zea mays) [22]; 500 g ai/ha): 80
Barnyardgrass plant response rating (0 to 100 scale) ([23]; 125 g ai/ha): 60
Barnyardgrass plant response rating (0 to 100 scale) ([23]; 500 g ai/ha): 100
Ryegrass, Italian plant response rating (0 to 100 scale) ([24]; 125 g ai/ha): 70
Ryegrass, Italian plant response rating (0 to 100 scale) ([24]; 500 g ai/ha): 90
Oat, Wild plant response rating (0 to 100 scale) ([25]; 125 g ai/ha): 60
Oat, Wild plant response rating (0 to 100 scale) ([25]; 500 g ai/ha): 90
Ragweed plant response rating (0 to 100 scale) ([26]; 125 g ai/ha): 40
Ragweed plant response rating (0 to 100 scale) ([26]; 500 g ai/ha): 60
Kochia plant response rating (0 to 100 scale) (kochia (Bassia scoparia) [27]; 125 g ai/ha): 90
Kochia plant response rating (0 to 100 scale) (kochia (Bassia scoparia) [27]; 500 g ai/ha): 90
